Source: patent US9527832B2, “Substituted condensed pyrimidine compounds” (GRÜNENTHAL GMBH, priority 2013, dated 2016)
pIC50: −log10 of the molar value.

Molecular target: T1, human PDE4B1 (Homo sapiens, UniProt Q07343)
T1 construct: host or cells: Sf9 cells
Test: cAMP HTRF assay to determine the activity of hPDE4B1
Format: biochemical
Details: for pIC50: dose response measurements with eight concentrations, reported as ranges, read-out: IC50
Description: cAMP HTRF® Assay to Determine the Activity of hPDE4B1
The inhibiting effect of the compounds on the enzyme activity of human PDE4B1 was measured by the quantification of 5′-adenosine monophosphate (5′-AMP), which is formed from 3′,5′-cyclic adenosine monophosphate (cAMP). Human recombinant enzyme, expressed in Sf9 cells, and the HTRF (homogeneous time-resolved fluorescence) detection method were used in the assay.
The test compound or water (control) was mixed with the human recombinant PDE4B1 enzyme (4.8 U) in a buffer consisting of 44.4 mM tris-HCl, 5.28 mM MgCl2, 2.64 mM DTT and 0.044% Tween 20 (pH 7.8). After adding the cAMP enzyme substrate (final concentration 40 nM), the mixture was incubated for 30 minutes at room temperature. Then a fluorescence acceptor (Dye2 marked with cAMP), a fluorescence donor (anti-cAMP antibody marked with a europium cryptate) and the non-specific phosphodiesterase inhibitor IBMX (3-isobutyl-1-methylxanthine; final concentration 1 mM) were added. After 60 minutes the fluorescence transfer, which correlates with the amount of remaining cAMP, was measured with a microplate reader (Rubystar, BMG) at λex=337 nm, λem=620 nm and λem=665 nm. The enzyme activity was calculated from the quotient formed from the measured signal at 665 nm and that at 620 nm. The result was expressed as the percentage inhibition of enzyme activity of the control (without PDE4 inhibitor). The enzyme was omitted for measurement of the basal control.
IC50 values (IC50=concentration causing a half-maximal inhibition of control specific activity) were derived from dose response measurements with eight different concentrations (n=2; N=1-2).
Literature: N. Saldou et al., Comparison of recombinant human PDE4 isoforms: interaction with substrate and inhibitors, Cell. Signal. Vol. 10, No. 6, 427-440, 1998

[1] = Percentage inhibition of PDE4B at 1 μM test concentration

T1 sequence (Q07343 whole entry): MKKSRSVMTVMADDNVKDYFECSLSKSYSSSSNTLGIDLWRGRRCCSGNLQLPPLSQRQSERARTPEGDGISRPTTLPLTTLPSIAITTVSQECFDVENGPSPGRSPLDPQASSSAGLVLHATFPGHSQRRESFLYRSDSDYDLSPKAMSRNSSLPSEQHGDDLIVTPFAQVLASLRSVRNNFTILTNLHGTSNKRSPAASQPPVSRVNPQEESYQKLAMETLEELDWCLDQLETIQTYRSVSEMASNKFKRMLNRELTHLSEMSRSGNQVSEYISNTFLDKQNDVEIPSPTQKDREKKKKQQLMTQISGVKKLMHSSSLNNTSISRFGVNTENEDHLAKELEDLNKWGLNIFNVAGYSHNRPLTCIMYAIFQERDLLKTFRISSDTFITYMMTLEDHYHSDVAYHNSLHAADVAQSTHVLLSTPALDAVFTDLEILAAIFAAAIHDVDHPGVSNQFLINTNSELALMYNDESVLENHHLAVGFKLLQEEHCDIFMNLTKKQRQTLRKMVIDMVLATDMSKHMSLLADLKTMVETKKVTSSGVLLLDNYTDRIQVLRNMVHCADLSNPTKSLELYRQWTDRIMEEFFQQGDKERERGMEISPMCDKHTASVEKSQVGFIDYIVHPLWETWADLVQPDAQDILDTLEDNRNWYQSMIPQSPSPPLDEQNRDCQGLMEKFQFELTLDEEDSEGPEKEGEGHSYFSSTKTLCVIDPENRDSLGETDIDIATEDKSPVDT

Row | inhibition at 1 µM [1] | pIC50 | Inhibition at 1 μM test concentration [%] (Percentage inhibition of PDE4B at 1 μM test concentration, 1 µM) | Compound
1 | 35% |  |  | O=C(O)c1ccc2c(c1)ncn2-c1nc(-c2ccc(Cl)s2)nc2c1CCC2 (single isomer, unassigned) [Compound No. 1-63, 1-(2-(5-Chlorothiophen-2-yl)-6,7-dihydro-5H-cyclopenta[d]pyrimidin-4-yl)-1H-benzo[d]imidazole-5-carboxylic acid]
2 | 31% |  |  | O=C(O)c1ccc2ncn(-c3nc(-c4ccc(Cl)s4)nc4c3CCC4)c2c1 (single isomer, unassigned) [Compound No. 1-74, 1-(2-(5-Chlorothiophen-2-yl)-6,7-dihydro-5H-cyclopenta[d]pyrimidin-4-yl)-1H-benzo[d]imidazole-6-carboxylic acid]
3 | 80% | 6.00 to 7.00 |  | CN(C)C(=O)COc1ccc2ncn(-c3nc(-c4ccc(Cl)s4)nc4c3C[S+]([O-])C4)c2c1 (single isomer, unassigned) [Compound No. 2-74, 2-((1-(2-(5-Chlorothiophen-2-yl)-6-oxido-5,7-dihydrothieno[3,4-d]pyrimidin-4-yl)-1H-benzo[d]imidazol-6-yl)oxy)-N,N-dimethylacetamide]
4 | 39% |  |  | CN(C)C(=O)COc1ccc2c(c1)ncn2-c1nc(-c2ccc(Cl)s2)nc2c1C[S+]([O-])C2 (single isomer, unassigned) [Compound No. 2-75, 2-((1-(2-(5-Chlorothiophen-2-yl)-6-oxido-5,7-dihydrothieno[3,4-d]pyrimidin-4-yl)-1H-benzo[d]imidazol-5-yl)oxy)-N,N-dimethylacetamide]
5 | 105% | > 7.00 |  | COc1ccc(-c2nc3c(c(N4CCc5ccc(OCC(=O)N(C)C)cc54)n2)C[S+]([O-])C3)cc1 (centres unmarked) [2-18, 2-((1-(2-(4-Methoxyphenyl)-6-oxido-5,7-dihydrothieno[3,4-d]pyrimidin-4-yl)indolin-6-yl)oxy)-N,N-dimethylacetamide]
6 |  |  | 98% | COc1ccc(-c2nc3c(c(N4CCc5ccc(OCC(=O)N(C)C)cc54)n2)C[S+]([O-])C3)cc1 (centres unmarked) [2-20, 2-[[1-[2-(4-Methoxyphenyl)-6-oxo-5,7-dihydro-thieno[3,4-d]pyrimidin-4-yl]-2,3-dihydro-1H-indol-6-yl]oxy]-N,N-dimethyl-acetamide]
7 | 115% | > 7.00 |  | CN(C)C(=O)COc1ccc2c(c1)N(c1nc(-c3cccc(F)c3)nc3c1C[S+]([O-])C3)CC2 (centres unmarked) [2-24, 2-[[1-[2-(3-Fluorophenyl)-6-oxo-5,7-dihydro-thieno[3,4-d]pyrimidin-4-yl]-2,3-dihydro-1H-indol-6-yl]oxy]-N,N-dimethyl-acetamide]
8 |  | > 7.00 |  | COc1ccc(-c2nc3c(c(N4CCc5ccc(OCC(=O)N(C)C)cc54)n2)CSC3)cc1Cl [2-31]
9 | 94% | > 7.00 |  | CN(C)C(=O)COc1ccc2c(c1)N(c1nc(-c3ccc(F)s3)nc3c1C[S+]([O-])C3)CC2 (centres unmarked) [2-48, 2-((1-(2-(5-Fluorothiophen-2-yl)-6-oxido-5,7-dihydrothieno[3,4-d]pyrimidin-4-yl)indolin-6-yl)oxy)-N,N-dimethylacetamide]
10 | 91% | > 7.00 |  | O=C(COc1ccc2c(c1)N(c1nc(-c3ccc(Cl)s3)nc3c1CS(=O)(=O)C3)CC2)NCCO [2-62, 2-((1-(2-(5-Chlorothiophen-2-yl)-6,6-dioxido-5,7-dihydrothieno[3,4-d]pyrimidin-4-yl)indolin-6-yl)oxy)-N-(2-hydroxyethyl)acetamide]
11 | 62% | 6.00 to 7.00 |  | CN(C)C(=O)COc1ccc2oc(=O)n(-c3nc(-c4ccc(Cl)s4)nc4c3C[S+]([O-])C4)c2c1 (centres unmarked) [2-76, 2-((3-(2-(5-Chlorothiophen-2-yl)-6-oxido-5,7-dihydrothieno[3,4-d]pyrimidin-4-yl)-2-oxo-2,3-dihydrobenzo[d]oxazol-5-yl)oxy)-N,N-dimethylacetamide]
12 | 99% |  |  | CN(C)C(=O)COc1ccc2c(c1)N(c1nc(-c3ccc(C(N)=O)s3)nc3c1CCC3)CC2 [2-85, 5-(4-(6-(2-(Dimethylamino)-2-oxoethoxy)indolin-1-yl)-6,7-dihydro-5H-cyclopenta[d]pyrimidin-2-yl)thiophene-2-carboxamide]
13 | 112% | > 7.00 |  | Cc1ccc(-c2nc3c(c(N4CCc5ccc(OCC(=O)N(C)C)cc54)n2)C[S+]([O-])C3)cc1 (centres unmarked) [2-87, N,N-Dimethyl-2-[[1-(6-oxo-2-p-tolyl-5,7-dihydro-thieno[3,4-d]pyrimidin-4-yl)-2,3-dihydro-1H-indol-6-yl]oxy]-acetamide]
14 | 73% | 6.00 to 7.00 |  | COc1ccccc1-c1nc2c(c(N3CCc4ccc(OCC(=O)N(C)C)cc43)n1)C[S+]([O-])C2 (centres unmarked) [2-88, 2-[[1-[2-(2-Methoxyphenyl)-6-oxo-5,7-dihydro-thieno[3,4-d]pyrimidin-4-yl]-2,3-dihydro-1H-indol-6-yl]oxy]-N,N-dimethyl-acetamide]
15 | 119% | > 7.00 |  | CN(C)C(=O)COc1ccc2c(c1)N(c1nc(-c3cccc(Cl)c3)nc3c1C[S+]([O-])C3)CC2 (centres unmarked) [2-89, 2-[[1-[2-(3-Chlorophenyl)-6-oxo-5,7-dihydro-thieno[3,4-d]pyrimidin-4-yl]-2,3-dihydro-1H-indol-6-yl]oxy]-N,N-dimethyl-acetamide]
16 | 117% | > 7.00 |  | CN(C)C(=O)COc1ccc2c(c1)N(c1nc(-c3ccc(Cl)cc3)nc3c1C[S+]([O-])C3)CC2 (centres unmarked) [2-90, 2-[[1-[2-(4-Chlorophenyl)-6-oxo-5,7-dihydro-thieno[3,4-d]pyrimidin-4-yl]-2,3-dihydro-1H-indol-6-yl]oxy]-N,N-dimethyl-acetamide]
17 | 117% | > 7.00 |  | COc1cccc(-c2nc3c(c(N4CCc5ccc(OCC(=O)N(C)C)cc54)n2)C[S+]([O-])C3)c1 (centres unmarked) [2-91, 2-[[1-[2-(3-Methoxyphenyl)-6-oxo-5,7-dihydro-thieno[3,4-d]pyrimidin-4-yl]-2,3-dihydro-1H-indol-6-yl]oxy]-N,N-dimethyl-acetamide]
18 | 97% | > 7.00 |  | CN(C)C(=O)COc1ccc2c(c1)N(c1nc(-c3ccc(C#N)cc3)nc3c1C[S+]([O-])C3)CC2 (centres unmarked) [2-92, 2-[[1-[2-(4-Cyano-phenyl)-6-oxo-5,7-dihydro-thieno[3,4-d]pyrimidin-4-yl]-2,3-dihydro-1H-indol-6-yl]oxy]-N,N-dimethyl-acetamide]
19 | 121% | > 7.00 |  | CN(C)C(=O)COc1ccc2c(c1)N(c1nc(-c3ccccc3)nc3c1C[S+]([O-])C3)CC2 (centres unmarked) [2-93, N,N-Dimethyl-2-[[1-(6-oxo-2-phenyl-5,7-dihydro-thieno[3,4-d]pyrimidin-4-yl)-2,3-dihydro-1H-indol-6-yl]oxy]-acetamide]
20 | 91% | 6.00 to 7.00 |  | Cc1ccccc1-c1nc2c(c(N3CCc4ccc(OCC(=O)N(C)C)cc43)n1)C[S+]([O-])C2 (centres unmarked) [2-94, N,N-Dimethyl-2-[[1-(2-o-tolyl-6-oxo-5,7-dihydro-thieno[3,4-d]pyrimidin-4-yl)-2,3-dihydro-1H-indol-6-yl]oxy]-acetamide]
21 | 113% | > 7.00 |  | Cc1cccc(-c2nc3c(c(N4CCc5ccc(OCC(=O)N(C)C)cc54)n2)C[S+]([O-])C3)c1 (centres unmarked) [2-95, N,N-Dimethyl-2-[[1-(2-m-tolyl-6-oxo-5,7-dihydro-thieno[3,4-d]pyrimidin-4-yl)-2,3-dihydro-1H-indol-6-yl]oxy]-acetamide]
22 | 107% | > 7.00 |  | CN(C)C(=O)COc1ccc2c(c1)N(c1nc(-c3ccccc3Cl)nc3c1C[S+]([O-])C3)CC2 (centres unmarked) [2-96, 2-[[1-[2-(2-Chlorophenyl)-6-oxo-5,7-dihydro-thieno[3,4-d]pyrimidin-4-yl]-2,3-dihydro-1H-indol-6-yl]oxy]-N,N-dimethyl-acetamide]
23 | 93% | 6.00 to 7.00 |  | CN(C)C(=O)COc1ccc2c(c1)N(c1nc(-c3ccccc3C(F)(F)F)nc3c1C[S+]([O-])C3)CC2 (centres unmarked) [2-97, N,N-Dimethyl-2-[[1-[6-oxo-2-[2-(trifluoromethyl)-phenyl]-5,7-dihydro-thieno[3,4-d]pyrimidin-4-yl]-2,3-dihydro-1H-indol-6-yl]oxy]-acetamide]
24 | 98% | > 7.00 |  | CN(C)C(=O)COc1ccc2c(c1)N(c1nc(-c3cccc(C#N)c3)nc3c1C[S+]([O-])C3)CC2 (centres unmarked) [2-98, 2-[[1-[2-(3-Cyano-phenyl)-6-oxo-5,7-dihydro-thieno[3,4-d]pyrimidin-4-yl]-2,3-dihydro-1H-indol-6-yl]oxy]-N,N-dimethyl-acetamide]
25 | 104% | > 7.00 |  | CN(C)C(=O)COc1ccc2c(c1)N(c1nc(-c3ccc(F)cc3)nc3c1C[S+]([O-])C3)CC2 (centres unmarked) [2-99, 2-[[1-[2-(4-Fluorophenyl)-6-oxo-5,7-dihydro-thieno[3,4-d]pyrimidin-4-yl]-2,3-dihydro-1H-indol-6-yl]oxy]-N,N-dimethyl-acetamide]
